Data taken from patent publication US9120775B2, “Viral polymerase inhibitors” (Biota Scientific Management Pty Ltd, priority 2012, dated 2015).
Values after ≈ are worked out from the molar mass of the structure shown. Read-outs that look alike come from different tables or passages of the source.

Columns and labels:
[1] = Aqueous solubility (laser nephelometry); type: physicochemical; conditions: aqueous assay buffer pH 6.5 with 1% DMSO, aqueous buffer, kinetic from dmso stock, pH 6.5, 1% DMSO, 30 minute incubation at 25° C.
Experimental: Test compounds prepared in DMSO were screened in duplicate over a range of concentrations (1.6-100 ug/mL) in different aqueous media (for example a pH6.5 buffers which are relevant to the stomach and upper regions of the small intestine and therefore important when predicting the amount of drug likely to be in solution following oral administration). Test compounds were serially diluted in 100% DMSO ranging from 10-0.16 mg/mL. These titrated DMSO stocks were then further diluted 1:100 with assay buffer and added to test plates (UV Star Griener 384 well plates), maintaining the DMSO concentration at 1%.

1b (BK) NS5BΔ21 = biological target: T1, 1b (BK) NS5BΔ21 (Hepatitis C virus genotype 1b, UniProt P26663); test: HCV polymerase inhibition assay; type: biochemical
T1 construct: 100 nM 1b (BK) NS5BΔ21
Experimental: HCV polymerase reactions were carried out using a modified method of Howe et al., Antimicrobial Agents and Chemotherapy 2004 48(12): 4813-4821. Reactions contained a final concentration of, 0.5% DMSO, 100 nM 1b (BK) NS5BΔ21, 20 mM Tris-HCl pH 7.5, 5 mM MgCl2, 5 mM MnCl2, 3 mM DTT, 0.05% BSA, 0.2 U/μL RNasin, 10 μg/mL Poly(rC) template, GTP (at Km) and 0.05 μCi/μL ^33P-GTP in a total reaction volume of 50 μL. Compounds were tested in a three fold dilution series, for example starting from 50 μM. Reactions were initiated with the addition of GTP and terminated after […] with 50 μL ice cold 0.2 M EDTA. Terminated reactions were transferred to DEAE 96-well filter plates, unincorporated nucleotides washed from the filters and 50 μL scintillation fluid added prior to reading on a scintillation counter. The compound concentration that reduced ^33P-GTP incorporation by 50% (IC50) was calculated using non-linear regression.

[2] = system: genotype 1b (Con 1) subgenomic replicon cell line; test: HCV replicon assay, genotype 1b, Renilla luciferase reporter; type: cell-based; conditions: Hepatitis C virus; 72 hours incubation, Renilla luciferase activity
Experimental: A genotype 1b (Con 1) subgenomic replicon cell line based on Blight et al., Science 2000 290: 1972-1974, modified to express a Renilla luciferase reporter gene was used to assess antiviral activity of test compounds. Cell cultures were maintained in a sub-confluent state in DMEM with glutamine, 10% heat-inactivated foetal bovine serum (FBS) and G418 (Geneticin®).
For assay, cells were seeded at a density of 7000 cells/well into 96 well tissue culture trays in culture media lacking G418. Compounds were tested in a three fold dilution series, for example starting from 50 uM. After 72 hours incubation at 37° C. and 5% CO2, Renilla luciferase activity was quantified via the Promega Renilla Luciferase or Renilla-Glo™ Luciferase Assay Systems (Promega corporation. The same method was employed for replicon assays using subgenomic genotype 1a (H77) and 2a (JFH-1) replicon cell lines with a seeding cell density of 5000 cells/well for the 2a cell lines.
The compound concentration that reduced luciferase activity by 50% (EC50) was calculated using non-linear regression.

[3] = read-out: solubility ranges at pH 6.5

T1 sequence (P26663 2420-2989, stated change not applied): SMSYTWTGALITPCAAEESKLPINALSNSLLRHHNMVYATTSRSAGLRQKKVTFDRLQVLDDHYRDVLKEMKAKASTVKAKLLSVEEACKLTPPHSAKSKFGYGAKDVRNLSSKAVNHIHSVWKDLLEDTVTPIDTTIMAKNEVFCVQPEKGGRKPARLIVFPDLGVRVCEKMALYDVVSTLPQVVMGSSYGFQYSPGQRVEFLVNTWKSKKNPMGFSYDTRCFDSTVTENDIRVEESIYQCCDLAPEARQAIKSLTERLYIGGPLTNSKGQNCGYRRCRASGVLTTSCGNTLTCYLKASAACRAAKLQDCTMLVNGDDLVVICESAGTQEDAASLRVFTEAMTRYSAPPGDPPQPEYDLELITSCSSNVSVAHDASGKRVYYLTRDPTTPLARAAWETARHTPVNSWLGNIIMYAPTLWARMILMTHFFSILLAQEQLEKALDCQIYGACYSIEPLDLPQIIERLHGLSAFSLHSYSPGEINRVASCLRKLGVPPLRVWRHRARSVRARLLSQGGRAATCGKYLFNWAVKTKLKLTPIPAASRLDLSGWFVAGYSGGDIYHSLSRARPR

Row | Structure (SMILES) | solubility at 30 min ([1]; read-out: Solubility at pH 6.5) [mg/mL] | IC50 (1b (BK) NS5BΔ21) [µM] | EC50 [2] [µM] | solubility at 30 min [1, 3] [mg/mL]
1 | CNC(=O)c1c2cc(C3CC3)c(N(CC3CCC3)S(C)(=O)=O)cc2nn1-c1ccc(Cl)cc1 [A, reference compound] | 0.0016 to 0.0031 (≈ 3.29 to 6.37 µM) | – | – | –
2 | CNC(=O)c1c2cc(C3CC3)c(N(CC3CC3)S(C)(=O)=O)cc2nn1-c1ccc(Cl)cc1 [B, reference compound] | 0.0031 to 0.0063 (≈ 6.55 to 13.3 µM) | – | – | –
3 | CNC(=O)c1c2cc(C3CC3)c(N(CC3CCOC3)S(C)(=O)=O)cc2nn1-c1ccc(Cl)cc1 (centres unmarked) [C, reference compound] | < 0.0016 | – | – | –
4 | CNC(=O)c1c2cc(C3CC3)c(N(CCCC3CCO3)S(C)(=O)=O)cc2nn1-c1ccc(Cl)cc1 (centres unmarked) [Compound 4, 2-(4-chlorophenyl)-5-cyclopropyl-N-methyl-6-{(methylsulfonyl)[3-(oxetan-2-yl)propyl]amino}-2H-indazole-3-carboxamide] | – | < 0.1 | < 0.1 | –
5 | CNC(=O)c1c2cc(C3CC3)c(N(CCC3COC3)S(C)(=O)=O)cc2nn1-c1ccc(C)cn1 [Compound 5, 5-cyclopropyl-N-methyl-2-(5-methylpyridin-2-yl)-6-{(methylsulfonyl)[2-(oxetan-3-yl)ethyl]amino}-2H-indazole-3-carboxamide] | – | 0.5 to 0.99 | – | –
6 | CNC(=O)c1c2cc(C3CC3)c(N(CCC3CNC3)S(C)(=O)=O)cc2nn1-c1ccc(Cl)cc1 [Compound 6, 6-{[2-(Azetidin-3-yl)ethyl](methylsulfonyl)amino}-2-(4-chlorophenyl)-5-cyclopropyl-N-methyl-2H-indazole-3-carboxamide] | – | 0.1 to 0.49 | 1 to 10 | –
7 | CNC(=O)c1c2cc(C3CC3)c(N(CCC3CN(C)C3)S(C)(=O)=O)cc2nn1-c1ccc(Cl)cc1 [Compound 7, 2-(4-chlorophenyl)-5-cyclopropyl-N-methyl-6-{[2-(1-methylazetidin-3-yl)ethyl](methylsulfonyl)amino}-2H-indazole-3-carboxamide] | – | 0.1 to 0.49 | 0.1 to 0.49 | –
8 | CNC(=O)c1c2cc(C3CC3)c(N(CCC3COC3C)S(C)(=O)=O)cc2nn1-c1ccc(Cl)cc1 (centres unmarked) [Compound 9, 2-(4-Chlorophenyl)-5-cyclopropyl-N-methyl-6-[{2[-2-methyloxetan-3-yl]ethyl}(methylsulfonyl)amino]-2H-indazole-3-carboxamide] | – | – | – | 0.025 to 0.05 (≈ 48.4 to 96.7 µM)
9 | CNC(=O)c1c2cc(C3CC3)c(N(CCC3COC3)S(C)(=O)=O)cc2nn1-c1ccc(Cl)cc1 [Compound 10, 2-(4-chlorophenyl)-5-cyclopropyl-N-methyl-6-{(methylsulfonyl)[2-(oxetan-3-yl)ethyl]amino}-2H-indazole-3-carboxamide] | – | < 0.1 | < 0.1 | –
10 | CNC(=O)c1c2cc(C3CC3)c(N(CCC3(C)COC3)S(C)(=O)=O)cc2nn1-c1ccc(Cl)cc1 [Compound 11, 2-(4-chlorophenyl)-5-cyclopropyl-N-methyl-6-{[2-(3-methyloxetan-3-yl)ethyl](methylsulfonyl)amino}-2H-indazole-3-carboxamide] | – | < 0.1 | < 0.1 | –
11 | CNC(=O)c1c2cc(C3CC3)c(N(CC3(C)COC3)S(C)(=O)=O)cc2nn1-c1ccc(Cl)cc1 [Compound 12, 2-(4-chlorophenyl)-5-cyclopropyl-N-methyl-6-{[(3-methyloxetan-3-yl)methyl](methylsulfonyl)amino}-2H-indazole-3-carboxamide] | – | 1 to 10 | 1 to 10 | –
12 | CNC(=O)c1c2cc(C3CC3)c(N(CCC3CCO3)S(C)(=O)=O)cc2nn1-c1ccc(Cl)cc1 (centres unmarked) [Compound 13, 2-(4-chlorophenyl)-5-cyclopropyl-N-methyl-6-{(methylsulfonyl)[2-(oxetan-2-yl)ethyl]amino}-2H-indazole-3-carboxamide] | – | 0.1 to 0.49 | < 0.1 | –
13 | CNC(=O)c1c2cc(C3CC3)c(N(CC(C)C3COC3)S(C)(=O)=O)cc2nn1-c1ccc(Cl)cc1 (centres unmarked) [Compound 15, 2-(4-chlorophenyl)-5-cyclopropyl-N-methyl-6-{(methylsulfonyl) [2-(oxetan-3-yl)propyl]amino}-2H-indazole-3-carboxamide] | – | 0.1 to 0.49 | 0.5 to 0.99 | –
14 | CNC(=O)c1c2cc(C3CC3)c(N(CCC3(C(C)C)COC3)S(C)(=O)=O)cc2nn1-c1ccc(Cl)cc1 [Compound 16, 2-(4-chlorophenyl)-5-cyclopropyl-N-methyl-6-[(methylsulfonyl) {2-[3-(propan-2-yl)oxetan-3-yl]ethyl}amino]-2H-indazole-3-carboxamide] | – | < 0.1 | < 0.1 | –
15 | CNC(=O)c1c2cc(C3CC3)c(N(CCC3CN(C(=O)OC(C)(C)C)C3)S(C)(=O)=O)cc2nn1-c1ccc(Cl)cc1 [Compound 19, tert-butyl 3-(2-{[2-(4-chlorophenyl)-5-cyclopropyl-3-(methylcarbamoyl)-2H-indazol-6-yl](methylsulfonyl)amino}ethyl)azetidine-1-carboxylate] | – | 0.1 to 0.49 | < 0.1 | –
16 | CNC(=O)c1c2cc(C3CC3)c(N(CCC3COC3C)S(C)(=O)=O)cc2nn1-c1ccc(C)cn1 (centres unmarked) [Compound 20, 5-cyclopropyl-N-methyl-6-{[2-(2-methyloxetan-3-yl)ethyl](methylsulfonyl)amino}-2-(5-methylpyridin-2-yl)-2H-indazole-3-carboxamide] | – | – | – | 0.0125 to 0.025 (≈ 25.1 to 50.2 µM)
17 | CNC(=O)c1c2cc(C3CC3)c(N(CCC3(C)COC3)S(C)(=O)=O)cc2nn1-c1ccc(C)cn1 [Compound 21, 5-cyclopropyl-N-methyl-6-{[2-(3-methyloxetan-3-yl)ethyl](methylsulfonyl)amino}-2-(5-methylpyridin-2-yl)-2H-indazole-3-carboxamide] | – | – | – | > 0.1
18 | CNC(=O)c1c2cc(C3CC3)c(N(CCN3CC(O)C3)S(C)(=O)=O)cc2nn1-c1ccc(Cl)cc1 [Compound 22, 2-(4-chlorophenyl)-5-cyclopropyl-6-[2-(3-hydroxyazetidin-1-yl)ethyl-methylsulfonyl-amino]-N-methyl-indazole-3-carboxamide] | – | 0.5 to 0.99 | 0.1 to 0.49 | –
19 | CNC(=O)c1c2cc(C3CC3)c(N(CCC3CN(C(=O)OC(C)(C)C)C3)S(C)(=O)=O)cc2nn1-c1ccc(C)cn1 [Compound 24, tert-butyl 3-[2-[[5-cyclopropyl-3-(methylcarbamoyl)-2-(5-methyl-2-pyridyl)indazol-6-yl]-methylsulfonyl-amino]ethyl]azetidine-1-carboxylate] | – | – | – | 0.0125 to 0.025 (≈ 21.5 to 42.9 µM)
20 | CNC(=O)c1c2cc(C3CC3)c(N(CCC3(OC)CN(C(=O)OC(C)(C)C)C3)S(C)(=O)=O)cc2nn1-c1ccc(Cl)cc1 [Compound 27, tert-butyl 3-[2-[[2-(4-chlorophenyl)-5-cyclopropyl-3-(methylcarbamoyl)indazol-6-yl]-methylsulfonyl-amino]ethyl]-3-methoxy-azetidine-1-carboxylate] | – | 0.5 to 0.99 | < 0.1 | –
21 | CNC(=O)c1c2cc(C3CC3)c(N(CCC3(OC)COC3)S(C)(=O)=O)cc2nn1-c1ccc(C)cn1 [Compound 28, 5-cyclopropyl-6-[2-(3-methoxyoxetan-3-yl)ethyl-methylsulfonyl-amino]-N-methyl-2-(5-methyl-2-pyridyl)indazole-3-carboxamide] | – | – | – | 0.05 to 0.1 (≈ 97.3 to 195 µM)
22 | CNC(=O)c1c2cc(C3CC3)c(N(CCC3COC3C)S(C)(=O)=O)cc2nn1-c1ccc(Cl)cc1 (centres unmarked) [Compound 31, 2-(4-chlorophenyl)-5-cyclopropyl-N-methyl-6-[2-[-2-methyloxetan-3-yl]ethyl-methylsulfonyl-amino]indazole-3-carboxamide] | – | 0.1 to 0.49 | < 0.1 | –
23 | CNC(=O)c1c2cc(C3CC3)c(N(CCC3(CNC(=O)OC(C)(C)C)COC3)S(C)(=O)=O)cc2nn1-c1ccc(C)cn1 [Compound 35, tert-butyl N-[[3-[2-[[5-cyclopropyl-3-(methylcarbamoyl)-2-(5-methyl-2-pyridyl)indazol-6-yl]-methylsulfonyl-amino]ethyl]oxetan-3-yl]methyl]carbamate] | – | – | 1 to 10 | 0.0125 to 0.025 (≈ 20.4 to 40.8 µM)
24 | CNC(=O)c1c2cc(C3CC3)c(N(CCC3CCOCC3)S(C)(=O)=O)cc2nn1-c1ccc(Cl)cc1 [D, reference compound] | < 0.0016 | – | – | –
